Results as given in PMC4440778, “Structure-Activity Relationship and Mode of Action of a Frog Secreted Antibacterial Peptide B1CTcu5 Using Synthetically and Modularly Modified or Deleted (SMMD) Peptides” (PLoS ONE, 2015).
In brackets after ≈: the same amount, converted by molar mass. Where a SMILES comes first, the peptide text is derived from it. Bridges are numbered along the chain shown (N, C = ends).

Legend:
[1] = system: V. cholerae (clinical isolates); details: 24 h
Method: (§2) Bacterial cultures were grown in Luria Bertani broth (Hi-media) by overnight incubation at 37°C with constant shaking. Microbial cultures having 10^6 CFU/ml were made from OD 0.6 culture. Respective peptide stock concentration (1mg/ml) were prepared in sterile water and diluted in LB broth to make concentrations ranging from 1–200 μg/ml. Bacterial culture (50 μl) was treated with 50 μl of individual peptide amide solution of various concentrations and incubated for 24 h at 37°C with constant shaking in a 96 well microtitre plate. […] The minimum inhibitory concentration (MIC) was taken as the dose at which 100% of growth inhibition was observed and was calculated from the graph. MIC was calculated from independent experiments performed in triplicate.

[2] = system: P. aeruginosa ATCC 27853; details: ATCC 27853, 24 h
Method: as §2

[3] = system: skin cancer cells (A431); type: cell-based, human
Method: (§1) Cytotoxicity of the peptides against human embryonic kidney (HEK) cells, skin cancer cells (A431) and PBMCs were evaluated by 3-[4, 5-dimethylthiazol-2-yl]-2, 5-diphenyl tetrazolium bromide (MTT) assay. Peptide solution prepared in less than 0.2% DMSO (10–100 μg/ml) was treated with initially seeded 10,000 cells per well for HEK and A431 cells. To assess peptide cytotoxicity in PBMCs, MTT assay was performed by adding different concentrations of the respective peptides to 96 well plate containing 40,000 PBMCs per well, in triplicate. The conversion of MTT into […] was determined by measuring the absorbance at 570 nm.

[4] = system: PBMCs; type: cell-based, human
Method: Peripheral blood mononuclear cells (PBMCs) were isolated from heparanised blood of healthy individuals. Five milliliter of blood was diluted with PBS (pH 7.4), and layered above 5 ml of histopaque and centrifuged at 1200 rpm for 30 min at room temperature. The upper layer was discarded, and the interphase containing PBMCs were carefully withdrawn and washed with PBS. It was centrifuged at 1500 rpm at room temperature for 10 min, the pellets were resuspended in RPMI medium and the cells were counted.
as §1

[5] = system: E. coli MG 1655; details: MG 1655, 24 h
Method: as §2

[6] = system: S. aureus ATCC 9542; details: ATCC 9542, 24 h
Method: as §2

[7] = system: B. coagulans ATCC 7050; details: ATCC 7050, 24 h
Method: as §2

[8] = system: human embryonic kidney (HEK) cells; type: cell-based
Method: as §1

[9] = system: B. subtilis MTCC 14416; details: MTCC 14416, 24 h
Method: as §2

Row | SMILES | MIC [1] | MIC [2] | CC 50 [3] | CC 50 [4] | MIC [5] | MIC [6] | MIC [7] | CC 50 [8] | MIC [9]
1 | CC[C@H](C)[C@@H]1NC(=O)[C@H](CCCCN)NC(=O)[C@@H](NC(=O)[C@H](CC(C)C)NC(=O)[C@@H](NC(=O)[C@H](CCC(N)=O)NC(=O)[C@@H]2CCCN2C(=O)[C@H](CC(C)C)NC(=O)[C@H](Cc2ccccc2)NC(=O)[C@H](CC(N)=O)NC(=O)[C@H](C)NC(=O)[C@H](C)NC(=O)[C@H](CC(C)C)NC(=O)CNC(=O)[C@H](C)NC(=O)[C@@H](NC(=O)[C@@H](N)CCCCN)[C@@H](C)CC)[C@@H](C)CC)CSSC[C@@H](C(N)=O)NC(=O)[C@H](CCCCN)NC(=O)[C@H](CCCNC(=N)N)NC(=O)[C@H](C)NC1=O [B1CTcu5K] (H-KIAGLAANFLPQILCKIARKC-NH2; disulfide 15-21) | 25 µg/mL (≈ 11 µM) | >100 µg/mL | >100 µg/mL | >100 µg/mL | 25 µg/mL (≈ 11 µM) | 12.5 µg/mL (≈ 5.51 µM) | 12.5 µg/mL (≈ 5.51 µM) | >100 µg/mL | 100 µg/mL (≈ 44.1 µM)
2 | CC[C@H](C)[C@@H]1NC(=O)[C@H](CCCCN)NC(=O)[C@@H](NC(=O)[C@H](CC(C)C)NC(=O)[C@@H](NC(=O)[C@H](CCC(N)=O)NC(=O)[C@@H]2CCCN2C(=O)[C@H](CC(C)C)NC(=O)[C@H](Cc2ccccc2)NC(=O)[C@H](CC(N)=O)NC(=O)[C@H](C)NC(=O)[C@H](C)NC(=O)[C@H](CC(C)C)NC(=O)CNC(=O)[C@H](C)NC(=O)[C@@H](NC(=O)[C@@H](N)CCCNC(=N)N)[C@@H](C)CC)[C@@H](C)CC)CSSC[C@@H](C(N)=O)NC(=O)[C@H](CCCCN)NC(=O)[C@H](CCCNC(=N)N)NC(=O)[C@H](C)NC1=O [B1CTcu5R] (H-RIAGLAANFLPQILCKIARKC-NH2; disulfide 15-21) | 12.5 µg/mL (≈ 5.44 µM) | >100 µg/mL | >100 µg/mL | 96.1 ± 1.22 µg/mL (≈ 41.8 µM) | 25 µg/mL (≈ 10.9 µM) | 25 µg/mL (≈ 10.9 µM) | 12.5 µg/mL (≈ 5.44 µM) | >100 µg/mL | 50 µg/mL (≈ 21.8 µM)
3 | CC[C@H](C)[C@@H]1NC(=O)[C@H](CCCCN)NC(=O)[C@@H](NC(=O)[C@H](CC(C)C)NC(=O)[C@@H](NC(=O)[C@H](CCC(N)=O)NC(=O)[C@@H]2CCCN2C(=O)[C@H](CC(C)C)NC(=O)[C@H](Cc2ccccc2)NC(=O)[C@H](CC(N)=O)NC(=O)[C@H](C)NC(=O)[C@H](C)NC(=O)[C@H](CC(C)C)NC(=O)CNC(=O)[C@H](C)NC(=O)[C@@H](NC(=O)[C@@H](N)CC(C)C)[C@@H](C)CC)[C@@H](C)CC)CSSC[C@@H](C(N)=O)NC(=O)[C@H](CCCCN)NC(=O)[C@H](CCCNC(=N)N)NC(=O)[C@H](C)NC1=O [Cyclic B1CTcu5] (H-LIAGLAANFLPQILCKIARKC-NH2; disulfide 15-21) | 25 µg/mL (≈ 11.1 µM) | >100 µg/mL | >100 µg/mL | 75.1 ± 1.46 µg/mL (≈ 33.3 µM) | 25 µg/mL (≈ 11.1 µM) | >100 µg/mL | 15 µg/mL (≈ 6.66 µM) | >100 µg/mL | 50 µg/mL (≈ 22.2 µM)
